Measurements from PubChem BioAssay (NCI).
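Compound exposure: 48 hours, 5 concentrations, 96-well plates. GI50 is the concentration that inhibits growth by half. TGI: concentration producing complete growth inhibition.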

What was measured:
Experiment in all cases: growth of human tumour cells (NCI), 48 h
SK-MEL-5 melanoma = tested on: SK-MEL-5 melanoma
CCRF-CEM leukemia = tested on: CCRF-CEM leukemia
MOLT-4 leukemia = tested on: MOLT-4 leukemia
OVCAR-4 ovarian = tested on: OVCAR-4 ovarian
IGROV1 ovarian = tested on: IGROV1 ovarian
OVCAR-8 ovarian = tested on: OVCAR-8 ovarian
786-0 renal = tested on: 786-0 renal
SF-268 CNS = tested on: SF-268 CNS
PC-3 prostate = tested on: PC-3 prostate
ACHN renal = tested on: ACHN renal

SMILES	GI50 (SK-MEL-5 melanoma) [nM]	TGI (SK-MEL-5 melanoma) [µM]	TGI (CCRF-CEM leukemia) [µM]	GI50 (MOLT-4 leukemia) [nM]	TGI (MOLT-4 leukemia) [µM]	GI50 (OVCAR-4 ovarian) [nM]	TGI (OVCAR-4 ovarian) [µM]	GI50 (IGROV1 ovarian) [nM]	TGI (IGROV1 ovarian) [µM]	GI50 (OVCAR-8 ovarian) [nM]	TGI (OVCAR-8 ovarian) [µM]	GI50 (786-0 renal) [nM]	TGI (786-0 renal) [µM]	GI50 (SF-268 CNS) [nM]	TGI (SF-268 CNS) [µM]	GI50 (PC-3 prostate) [nM]	TGI (PC-3 prostate) [µM]	GI50 (ACHN renal) [µM]	TGI (ACHN renal) [µM]	GI50 (CCRF-CEM leukemia) [nM]
COc1ccc(OC)c(NC(=O)c2cccc(NC3=C(Cl)C(=O)N(Cc4ccccc4)C3=O)c2)c1	26600	87.7	> 100	7660	> 100	> 100000	> 100	> 100000	> 100	> 76800	> 100	> 96200	> 100	> 69200	> 100	38200	> 100	> 100	> 100	–
CCCCCCCN(CCCCCCC)C(=N)c1ccnc2ccccc12	1510	2.96	5.27	1700	4.4	1350	3.05	1600	3.37	1630	3.48	1550	2.97	1480	3.03	1390	2.96	1.62	3.07	2140
c1cc(CN2CCCNCCNCCCNCC2)ccc1CN1CCCNCCNCCCNCC1	> 100000	> 100	> 100	> 100000	> 100	> 100000	> 100	> 100000	> 100	> 100000	> 100	> 100000	> 100	> 100000	> 100	> 100000	> 100	> 100	> 100	> 100000
C=C(C)[C@@H]1C/C=C(/CO)CC[C@H]2O[C@]2(C)CC/C=C(\C)CC1	12700	25.5	34.8	12700	32	16300	34.1	18600	41.3	24000	58.4	15400	34.2	19900	38.2	11800	30.9	29.5	> 100	12500
O=C(O)CNc1ccc(Cl)c(Cl)c1	–	87.9	84.8	–	> 100	–	> 100	–	26.3	–	85.4	–	92.6	–	> 100	–	76	–	53	–
Nc1ncn(C2OC(COP(=O)(O)O)C(O)C2O)c(=O)n1 (stereo not drawn)	–	> 100	> 52.4	–	> 59.2	–	> 100	–	> 100	–	> 68.9	–	> 100	–	> 100	–	> 100	–	> 100	–
O=C(Nc1ccc2ncnc(Nc3ccc(Oc4cccc(F)c4)c(Cl)c3)c2c1)c1ccc(CN2CCOCC2)cc1	1740	3.25	20.7	1800	4.98	2530	8.52	1400	5.5	2340	7.69	1970	4.33	2600	18.1	2240	10.6	2.26	9.55	2950
O=C1Nc2ccccc2/C1=C\c1cccc(/C=C2/C(=O)Nc3ccccc32)n1	242	0.722	> 100	509	–	718	1.99	440	1.67	300	1.13	1080	2.49	362	1.39	654	3.31	0.308	1.12	356
CN(C)C[C@H]1CCn2c(c(C3=C(c4cn(C)c5ccccc45)C(=O)NC3=O)c3ccccc32)C1	4090	7.71	12.4	6380	14	3970	12.5	6110	12.2	5600	13.2	4780	9.29	4710	9.04	3920	8.56	4.3	9.87	4460
CCCCCCCCCCCC[N+](C)(C)Cc1ccccc1	1330	2.62	5.43	2180	5.4	1820	7.68	1430	3.66	2160	6.75	2370	6.15	2020	4.45	490	3.25	5.61	20.4	1880
Cc1cn(CCC(N)C(=O)O)c(=O)[nH]c1=O (stereo not drawn)	–	> 100	> 100	–	> 100	–	> 100	–	> 100	–	> 100	–	> 100	–	> 100	–	> 100	–	> 100	–
COc1cc(OC)c(/C=C/C(=O)c2ccc(Nc3ncnc4ccccc34)cc2)c(OC)c1	426	1.98	5.51	898	> 100	1210	3.05	1930	20.3	1340	3.54	1470	3.55	1370	4.4	707	8.33	1.83	17.7	629
COc1ccc(C(C#N)=C2C=CC(=NO)C=C2)cc1	4340	17.2	> 100	4580	> 100	5850	19.6	2800	8	10200	22.9	4950	15.3	3810	14.2	3740	17.1	8.63	21.1	2760
